Data taken from ChEMBL document CHEMBL1201862, “PubChem BioAssay data set” (2004).
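Following 48 hours of exposure in 96-well plates, responses at five concentrations were used to interpolate endpoints linearly. GI50: concentration for 50% inhibition of growth.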 The source made the active and inactive calls. No stated cut-off is given here; in the data, active = GI50 up to about 1.1 µM and inactive = higher.

Columns and labels:
Assay in all cases: growth of human tumour cells (NCI), 48 h
SK-OV-3 = test system: SK-OV-3
HOP-62 = test system: HOP-62
A549 = test system: A549
HCC 2998 = test system: HCC 2998
UACC-62 = test system: UACC-62
CAKI-1 = test system: CAKI-1
SF-268 = test system: SF-268
OVCAR-4 = test system: OVCAR-4
SK-MEL-28 = test system: SK-MEL-28
LOX IMVI = test system: LOX IMVI
SNB-75 = test system: SNB-75
A498 = test system: A498
SR = test system: SR
SK-MEL-5 = test system: SK-MEL-5
OVCAR-5 = test system: OVCAR-5
SK-MEL-2 = test system: SK-MEL-2
NCI/ADR-RES = test system: NCI/ADR-RES
MDA-MB-231 = test system: MDA-MB-231
MDA-N = test system: MDA-N

SMILES | GI50 (SK-OV-3) | GI50 (HOP-62) | GI50 (A549) | GI50 (HCC 2998) | GI50 (UACC-62) | GI50 (CAKI-1) | GI50 (SF-268) | GI50 (OVCAR-4) | GI50 (SK-MEL-28) | GI50 (LOX IMVI) | GI50 (SNB-75) | GI50 (A498) | GI50 (SR) | GI50 (SK-MEL-5) | GI50 (OVCAR-5) | GI50 (SK-MEL-2) | GI50 (NCI/ADR-RES) | GI50 (MDA-MB-231) | GI50 (MDA-N)
CCOC(=O)C(/C(=N\NC(=O)OC)C(=O)Nc1cc(OC)ccc1OC)c1cnc2ccccc2n1 (stereo not drawn) | > 100 µM (inactive) | > 100 µM (inactive) | > 100 µM (inactive) | > 100 µM (inactive) | > 100 µM (inactive) | > 100 µM (inactive) | > 100 µM (inactive) | > 100 µM (inactive) | > 100 µM (inactive) | > 100 µM (inactive) | > 100 µM (inactive) | > 100 µM (inactive) | > 100 µM (inactive) | > 100 µM (inactive) |  |  |  |  | 
CCCCCCCCCOC(=S)NC | 24.5 µM (inactive) |  | 24.8 µM (inactive) | 19.1 µM (inactive) | 23.2 µM (inactive) | 20.7 µM (inactive) | 19.5 µM (inactive) | 19.6 µM (inactive) | 22.3 µM (inactive) | 18.2 µM (inactive) | 26.1 µM (inactive) | 20.1 µM (inactive) |  | 19.1 µM (inactive) | 18.3 µM (inactive) | 19.5 µM (inactive) |  |  | 
NNC(=O)CCC(=O)Nc1ccc(Cl)cc1Cl | > 100 µM (inactive) | > 100 µM (inactive) | > 100 µM (inactive) | > 100 µM (inactive) | 28.8 µM (inactive) | > 100 µM (inactive) | > 100 µM (inactive) | > 100 µM (inactive) | > 100 µM (inactive) | 43.8 µM (inactive) | > 100 µM (inactive) | > 100 µM (inactive) | 6.68 µM (inactive) | > 100 µM (inactive) | > 100 µM (inactive) | 54.6 µM (inactive) |  |  | 
O=[N+]([O-])c1cccc(/C=N\NS(=O)(=O)c2ccc(Cl)cc2)c1O | > 100 µM (inactive) | > 100 µM (inactive) | > 100 µM (inactive) | > 100 µM (inactive) | 49.7 µM (inactive) | > 100 µM (inactive) | > 100 µM (inactive) | > 100 µM (inactive) | 46.9 µM (inactive) | > 100 µM (inactive) | > 100 µM (inactive) | > 100 µM (inactive) | 18.7 µM (inactive) | 73.1 µM (inactive) | > 100 µM (inactive) | 76.6 µM (inactive) |  |  | 
O=C(c1ccccc1)[C@H]1Nc2cnccc2C2c3ccccc3CC21 (stereo partly drawn) | 20.2 µM (inactive) | 25 µM (inactive) | 21.9 µM (inactive) | 39.4 µM (inactive) | 16.9 µM (inactive) | 24.9 µM (inactive) | 7.35 µM (inactive) | 0.564 µM (active) | 14.1 µM (inactive) | 1.57 µM (inactive) | 16.2 µM (inactive) | 25.9 µM (inactive) | 7.43 µM (inactive) | 3.31 µM (inactive) | 28.4 µM (inactive) | 11.1 µM (inactive) |  |  | 
COC(=O)N/N=C/c1oc(-c2cccc([N+](=O)[O-])c2)c(-c2cccc([N+](=O)[O-])c2)c1[N+](=O)[O-] | > 100 µM (inactive) | > 100 µM (inactive) | > 100 µM (inactive) | > 100 µM (inactive) | 59.8 µM (inactive) |  | > 100 µM (inactive) | > 100 µM (inactive) | > 100 µM (inactive) | 37.2 µM (inactive) |  |  | 40.7 µM (inactive) | > 100 µM (inactive) | > 100 µM (inactive) |  |  |  | 
CN1C(c2ccccc2)CC(C)(O)CC1c1ccccc1 (stereo not drawn) | > 100 µM (inactive) | > 100 µM (inactive) | > 100 µM (inactive) | > 100 µM (inactive) | > 100 µM (inactive) | > 100 µM (inactive) | > 100 µM (inactive) | > 100 µM (inactive) | > 100 µM (inactive) | > 100 µM (inactive) | > 100 µM (inactive) | > 100 µM (inactive) | > 100 µM (inactive) | > 100 µM (inactive) | > 100 µM (inactive) | > 100 µM (inactive) |  |  | 
CC(=O)OC(OC(C)=O)c1ncccc1C(=O)OC(C)C | > 100 µM (inactive) | > 100 µM (inactive) | > 100 µM (inactive) | 42.6 µM (inactive) | > 100 µM (inactive) | > 100 µM (inactive) | 13.7 µM (inactive) | > 100 µM (inactive) | 1.18 µM (inactive) | 20.9 µM (inactive) | 81.8 µM (inactive) | > 100 µM (inactive) | 15.1 µM (inactive) | 38.2 µM (inactive) | > 100 µM (inactive) | > 100 µM (inactive) |  |  | 
C/C=C1\CC2C(=O)CCC2C2c3ccccc3OC12 (stereo not drawn) | > 100 µM (inactive) | > 100 µM (inactive) | > 100 µM (inactive) |  | > 100 µM (inactive) | > 100 µM (inactive) | > 100 µM (inactive) | > 100 µM (inactive) | > 100 µM (inactive) | > 100 µM (inactive) | > 100 µM (inactive) |  | > 100 µM (inactive) | > 100 µM (inactive) | > 100 µM (inactive) | > 100 µM (inactive) | > 100 µM (inactive) | > 100 µM (inactive) | 0.0718 µM (active)
CN(C)C1=NC2=S(SC(Nc3ccccc3)=N2)S1 (stereo not drawn) | 46.9 µM (inactive) | 24.2 µM (inactive) | 7.85 µM (inactive) | 21 µM (inactive) | 21.2 µM (inactive) | 26.5 µM (inactive) | 34.5 µM (inactive) | 19 µM (inactive) | 17.2 µM (inactive) | 22.7 µM (inactive) | 28.7 µM (inactive) | 14.6 µM (inactive) | 17.1 µM (inactive) | 5.87 µM (inactive) | 34.8 µM (inactive) | 7.62 µM (inactive) |  |  | 
O=C(Nc1cc(Cl)ccc1Cl)c1cc2cccc(Br)c2oc1=O | > 100 µM (inactive) | 47.2 µM (inactive) | > 100 µM (inactive) |  | > 100 µM (inactive) |  |  |  | > 100 µM (inactive) | > 100 µM (inactive) | 34.9 µM (inactive) |  |  | > 100 µM (inactive) |  | > 100 µM (inactive) |  |  | 
CCN(CC)CC(=O)NC1c2ccccc2Oc2ccccc21 | > 100 µM (inactive) | > 100 µM (inactive) | > 100 µM (inactive) | > 100 µM (inactive) | > 100 µM (inactive) |  | > 100 µM (inactive) | > 100 µM (inactive) | > 100 µM (inactive) | > 100 µM (inactive) | > 100 µM (inactive) |  | > 100 µM (inactive) | > 100 µM (inactive) | > 100 µM (inactive) |  |  |  | 
N#CCCN(c1ccc(/C=C2\N=C(Cc3ccccc3)OC2=O)cc1)S(=O)(=O)c1ccccc1 | > 100 µM (inactive) | > 100 µM (inactive) | > 100 µM (inactive) | > 100 µM (inactive) | > 100 µM (inactive) | > 100 µM (inactive) | > 100 µM (inactive) |  | > 100 µM (inactive) | > 100 µM (inactive) | > 100 µM (inactive) | > 100 µM (inactive) |  | > 100 µM (inactive) | > 100 µM (inactive) | > 100 µM (inactive) |  |  | 
CN(CCCNCc1ccccn1)Cc1ccccc1O | 45.2 µM (inactive) | 12.4 µM (inactive) | 37.1 µM (inactive) | 25.1 µM (inactive) | 18.7 µM (inactive) | 42.8 µM (inactive) | 57.9 µM (inactive) | 31.8 µM (inactive) | > 100 µM (inactive) | 23.1 µM (inactive) | > 100 µM (inactive) | > 100 µM (inactive) |  | 21 µM (inactive) | 32 µM (inactive) | 35.2 µM (inactive) | 16.3 µM (inactive) | > 100 µM (inactive) | 58.2 µM (inactive)
C/C(=N\N(C)C)c1sc(-n2nc(-c3ccccc3)cc2-c2ccccc2)nc1C | > 100 µM (inactive) | > 100 µM (inactive) | > 100 µM (inactive) | > 100 µM (inactive) | > 100 µM (inactive) | > 100 µM (inactive) | > 100 µM (inactive) | > 100 µM (inactive) | > 100 µM (inactive) | 16.3 µM (inactive) | 15.2 µM (inactive) | > 100 µM (inactive) | > 100 µM (inactive) | > 100 µM (inactive) | 21 µM (inactive) | > 100 µM (inactive) |  |  | 
COc1ccc(-n2/c(=N/C(=S)N(C)C)ss/c2=N\C(=S)N(C)C)cc1 | 27.8 µM (inactive) | 50.7 µM (inactive) | > 100 µM (inactive) | > 100 µM (inactive) | 4.21 µM (inactive) | > 100 µM (inactive) | 77.1 µM (inactive) | 4.7 µM (inactive) | 9.35 µM (inactive) | > 100 µM (inactive) | 22.8 µM (inactive) | > 100 µM (inactive) | > 100 µM (inactive) |  | > 100 µM (inactive) | 46.9 µM (inactive) |  |  | 
CCCCCCCCCCCCCCCCOCC(COP(=O)(O)OCC1OC(n2cc(CC)c(=O)[nH]c2=O)CC1O)OC(=O)CCCCCCCCCCCCCCC (stereo not drawn) | > 100 µM (inactive) | > 100 µM (inactive) | > 100 µM (inactive) | > 100 µM (inactive) | > 100 µM (inactive) | > 100 µM (inactive) | > 100 µM (inactive) | > 100 µM (inactive) | > 100 µM (inactive) | > 100 µM (inactive) | > 100 µM (inactive) | > 100 µM (inactive) | > 100 µM (inactive) |  | > 100 µM (inactive) | > 100 µM (inactive) | > 100 µM (inactive) | > 100 µM (inactive) | 
Cc1ccc(S(=O)(=O)NC(=O)NCCc2c[nH]cn2)cc1 | > 100 µM (inactive) | > 100 µM (inactive) | > 100 µM (inactive) | > 100 µM (inactive) | > 100 µM (inactive) | > 100 µM (inactive) | > 100 µM (inactive) | > 100 µM (inactive) | > 100 µM (inactive) | > 100 µM (inactive) | > 100 µM (inactive) | > 100 µM (inactive) | > 100 µM (inactive) | > 100 µM (inactive) | > 100 µM (inactive) | > 100 µM (inactive) | > 100 µM (inactive) | > 100 µM (inactive) | 
